Measurements as given in BigSolDB 2.1.

O=C(O)c1cccnc1Nc1cccc(C(F)(F)F)c1
solubility (mole fraction)
Settings	288.15 K	293.15 K	298.15 K	303.15 K	308.15 K	313.15 K	318.15 K	323.15 K	328.15 K
in MTBE	0.0428	0.0471	0.0505	0.0549	0.0591	0.0663	0.073	0.08	0.0854
in acetone	0.0273	0.0296	0.0315	0.034	0.037	0.0418	0.048	0.053	0.0572
in acetonitrile	–	0.00125	0.0018	0.00235	0.00319	0.00437	0.00595	0.00745	0.00898
in cyclohexane	0.00268	0.00379	0.00512	0.00674	0.00887	0.0114	0.0137	0.0158	0.0182
in diisopropyl ether	0.00814	0.0119	0.0146	0.0183	0.022	0.0262	0.0303	0.0357	0.0424
in ethanol	0.00748	0.00873	0.00935	0.0113	0.0133	0.0153	0.0177	0.0197	0.0211
in ethyl acetate	0.0243	0.0261	0.0279	0.0308	0.0346	0.0393	0.0439	0.0494	0.0544
in isopropanol	0.00751	0.00844	0.00941	0.0107	0.0131	0.0152	0.0179	0.0209	0.0235
in isopropyl acetate	0.0228	0.0264	0.029	0.0324	0.0372	0.0435	0.05	0.0564	0.0637
in methanol	0.00655	0.00766	0.00862	0.00967	0.0107	0.0118	0.0135	0.0151	0.0171
in n-heptane	0.00171	0.00276	0.00404	0.00562	0.00726	0.00951	0.0121	0.0145	0.0172
in n-hexane	0.00145	0.00256	0.00382	0.00539	0.00678	0.00896	0.011	0.0131	0.0155
in n-propanol	0.00879	0.00999	0.011	0.0129	0.0147	0.0174	0.0202	0.0232	0.0266
in toluene	–	0.00154	0.00242	0.00395	0.00532	0.0073	0.00991	0.0133	0.0172
